# Assay results as given in US11090308B2, “Methods of treating liver disorders or lipid disorders with a THR-beta agonist” (Madrigal Pharmaceuticals, Inc., priority 2016, dated 2021).
# Experiments:
# Type in all cases: in vitro ADME
# [1] = molecular target: BSEP (Homo sapiens, UniProt O95342); experiment: In vitro drug transporter assay, BSEP; details: BSEP-mediated transport of TCA; read-out: Inhibitor of: BSEP, IC50
# [2] = molecular target: MDR1 (P-gp) (Homo sapiens, UniProt P08183); experiment: In vitro drug transporter assay, MDR1 (P-gp)
# Source text: (§1) The following studies have been conducted: (a) in vitro drug protein binding, transporter (organic anion transporting polypeptide [OATP], P-glycoprotein [P-gp], breast cancer-related protein [BCRP], and multiple drug resistance protein 1 [MDR1]), and cytochrome P-450 enzyme assays to investigate absorption, distribution, and excretion; (b) in vivo MGL-3196 rat and dog oral PK and bioavailability studies; (c) in vivo ^14C-MGL-3196 rat and dog oral pharmacokinetics, absorption, excretion, and tissue distribution by quantitative whole-body autoradiography (QWBA) studies; and (d) liver disposition of MGL-3196 using an in vitro sandwiched hepatocyte model system (B-CLEAR® technology) in dog (SCDH) and human (SCHH) hepatocytes.
# [3] = molecular target: T1, CYP2A6 (Homo sapiens, UniProt P11509); experiment: In vitro Cytochrome P-450 enzyme assay, CYP2A6
# T1 sequence (P11509 1-494): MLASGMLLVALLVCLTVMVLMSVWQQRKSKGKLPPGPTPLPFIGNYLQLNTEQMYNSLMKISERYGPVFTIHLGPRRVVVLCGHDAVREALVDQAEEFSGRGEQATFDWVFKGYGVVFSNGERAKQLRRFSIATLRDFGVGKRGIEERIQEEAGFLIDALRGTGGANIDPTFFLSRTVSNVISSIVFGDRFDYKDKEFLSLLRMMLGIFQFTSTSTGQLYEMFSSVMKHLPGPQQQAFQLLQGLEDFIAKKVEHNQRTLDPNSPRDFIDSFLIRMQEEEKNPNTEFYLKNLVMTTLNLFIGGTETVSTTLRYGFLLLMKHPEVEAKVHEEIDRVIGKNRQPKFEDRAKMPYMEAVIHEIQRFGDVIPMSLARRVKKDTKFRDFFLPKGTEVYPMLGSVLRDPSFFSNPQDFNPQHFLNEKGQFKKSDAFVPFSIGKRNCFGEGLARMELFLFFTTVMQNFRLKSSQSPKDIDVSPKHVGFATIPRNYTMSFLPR
# Source text: as §1
# Sequence of MDR1 (P-gp) (P08183 whole entry, species assumed): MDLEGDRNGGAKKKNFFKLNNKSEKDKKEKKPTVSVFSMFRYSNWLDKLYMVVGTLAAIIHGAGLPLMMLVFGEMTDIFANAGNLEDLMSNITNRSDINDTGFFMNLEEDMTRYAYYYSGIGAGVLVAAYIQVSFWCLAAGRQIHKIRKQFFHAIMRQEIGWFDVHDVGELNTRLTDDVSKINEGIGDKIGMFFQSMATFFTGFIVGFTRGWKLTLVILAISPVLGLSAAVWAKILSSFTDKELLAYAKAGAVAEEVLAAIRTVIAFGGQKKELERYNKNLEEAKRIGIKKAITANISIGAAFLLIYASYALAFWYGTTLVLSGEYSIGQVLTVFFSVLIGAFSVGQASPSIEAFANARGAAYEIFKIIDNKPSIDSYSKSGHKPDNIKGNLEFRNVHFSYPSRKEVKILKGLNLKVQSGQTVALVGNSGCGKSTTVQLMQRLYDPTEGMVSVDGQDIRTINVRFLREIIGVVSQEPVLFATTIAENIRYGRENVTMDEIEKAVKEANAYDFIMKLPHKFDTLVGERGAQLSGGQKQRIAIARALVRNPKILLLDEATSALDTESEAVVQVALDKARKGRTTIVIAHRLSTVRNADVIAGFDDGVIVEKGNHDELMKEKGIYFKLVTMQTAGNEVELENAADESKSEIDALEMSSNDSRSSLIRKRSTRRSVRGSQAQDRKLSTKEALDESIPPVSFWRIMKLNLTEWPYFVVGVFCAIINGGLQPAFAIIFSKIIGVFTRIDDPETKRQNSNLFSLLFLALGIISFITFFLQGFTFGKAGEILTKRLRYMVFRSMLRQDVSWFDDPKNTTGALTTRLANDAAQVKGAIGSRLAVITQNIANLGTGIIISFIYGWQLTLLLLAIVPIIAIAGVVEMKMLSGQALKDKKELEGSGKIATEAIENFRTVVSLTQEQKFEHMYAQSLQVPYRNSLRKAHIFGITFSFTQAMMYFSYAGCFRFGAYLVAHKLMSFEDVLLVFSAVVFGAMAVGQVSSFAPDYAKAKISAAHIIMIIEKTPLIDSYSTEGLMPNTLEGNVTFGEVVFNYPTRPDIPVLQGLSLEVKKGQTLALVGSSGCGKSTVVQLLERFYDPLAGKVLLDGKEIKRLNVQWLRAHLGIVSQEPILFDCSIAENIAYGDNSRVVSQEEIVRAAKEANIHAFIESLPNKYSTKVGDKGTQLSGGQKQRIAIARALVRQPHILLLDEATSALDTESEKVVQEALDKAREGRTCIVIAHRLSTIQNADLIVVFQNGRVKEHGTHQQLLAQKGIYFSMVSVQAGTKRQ
# Sequence of BSEP (O95342 whole entry, species assumed): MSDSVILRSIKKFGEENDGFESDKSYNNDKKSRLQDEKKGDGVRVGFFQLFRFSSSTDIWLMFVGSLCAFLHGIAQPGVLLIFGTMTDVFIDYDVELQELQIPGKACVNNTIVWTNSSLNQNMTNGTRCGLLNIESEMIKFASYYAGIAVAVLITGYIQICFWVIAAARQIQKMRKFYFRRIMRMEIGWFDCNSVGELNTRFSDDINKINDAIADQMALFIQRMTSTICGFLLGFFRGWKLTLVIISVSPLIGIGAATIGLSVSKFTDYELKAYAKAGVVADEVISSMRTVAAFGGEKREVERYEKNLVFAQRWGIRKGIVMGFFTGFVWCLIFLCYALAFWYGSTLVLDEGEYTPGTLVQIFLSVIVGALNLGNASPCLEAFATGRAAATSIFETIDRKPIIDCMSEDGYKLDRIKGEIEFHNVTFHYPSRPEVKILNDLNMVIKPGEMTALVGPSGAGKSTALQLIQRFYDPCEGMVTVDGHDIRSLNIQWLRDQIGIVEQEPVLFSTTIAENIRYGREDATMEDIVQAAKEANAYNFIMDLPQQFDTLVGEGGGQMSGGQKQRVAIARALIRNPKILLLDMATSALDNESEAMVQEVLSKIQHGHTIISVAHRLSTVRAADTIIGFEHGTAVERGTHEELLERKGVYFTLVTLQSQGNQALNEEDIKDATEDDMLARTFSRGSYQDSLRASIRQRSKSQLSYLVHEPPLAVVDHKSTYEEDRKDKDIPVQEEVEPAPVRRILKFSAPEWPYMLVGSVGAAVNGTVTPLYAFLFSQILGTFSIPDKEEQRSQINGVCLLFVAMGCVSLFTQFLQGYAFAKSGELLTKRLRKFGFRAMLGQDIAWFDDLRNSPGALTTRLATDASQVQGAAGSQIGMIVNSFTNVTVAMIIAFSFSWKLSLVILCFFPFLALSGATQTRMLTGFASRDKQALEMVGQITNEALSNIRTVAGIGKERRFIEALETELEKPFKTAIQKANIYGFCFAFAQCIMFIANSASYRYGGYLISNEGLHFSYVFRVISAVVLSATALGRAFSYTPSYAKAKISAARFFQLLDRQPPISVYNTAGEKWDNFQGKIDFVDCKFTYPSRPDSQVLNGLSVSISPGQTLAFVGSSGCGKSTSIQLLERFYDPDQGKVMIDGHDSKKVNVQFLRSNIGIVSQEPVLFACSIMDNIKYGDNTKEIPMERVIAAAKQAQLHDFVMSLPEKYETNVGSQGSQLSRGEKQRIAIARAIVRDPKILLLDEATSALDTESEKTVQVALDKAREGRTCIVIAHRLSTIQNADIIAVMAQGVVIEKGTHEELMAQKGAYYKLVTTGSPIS
structure (smiles),measurement,setting,value
"CC(C)c1cc(Oc2c(Cl)cc(-n3nc(C#N)c(=O)[nH]c3=O)cc2Cl)n[nH]c1=O [MGL-3196, 2-(3,5-dichloro-4-((5-isopropyl-6-oxo-1,6-dihydropyridazin-3-yl)oxy)phenyl)-3,5-dioxo-2,3,4,5-tetrahydro-1,2,4-triazine-6-carbonitrile]",IC50,[1],34.7 µM
same,Inhibitor of: MDR1,[2],not an inhibitor
same,Substrate for: MDR1 (P-gp),[2],weak substrate
same,Inhibitor of: CYP2A6,[3],not an inhibitor
